{
  "source": "patent US10556860B2",
  "about": "“hTERT modulators and methods of use” (Arizona Board of Regents on Behalf of the University of …, priority 2015, dated 2020)",
  "key": {"BCL2 mRNA": {"tested_on": "BCL2 mRNA", "assay": "qPCR of BCL2 mRNA in MCF7 cells", "format": "cell-based, human", "settings": "72 h", "procedure": "(§1) qPCR. MCF7 and melanoma cells were treated with GTC365 and BRACO-19 for 72 h. Total RNA was extracted using an RNeasy mini-prep kit (Qiagen) and quantitated by measuring absorbance at 260 nm. cDNA was synthesized using a Takara PrimeScript™ RT Reagent Kit with gDNA eraser and then used as a template for qPCR. The qPCR was performed using Kapa Probe Fast qPCR Master Mix with ABI Taqman probes of hTERT (Hs00972656_m1), BCL2 (HS00608023_m1, FAM-labeled) or MYC (Hs00153408_m1), and GAPDH (Hs02758991_g1, VIC-labeled). The Ct values were measured by running Rotor-Gene Q, and the relative quantity of hTERT, BCL2, and MYC mRNA was obtained compared to GAPDH as an internal control.\n(§2) BCL2 is a downstream molecule to hTERT such that BCL2 expression is activated by hTERT to repress apoptosis. To further define the effect of GTC365 on the transcription of hTERT, the relative mRNA levels of MYC and BCL2 were determined by quantitative PCR analysis in MCF7 cells after treatment with GTC365 for 72 h. […] A series of GTC260 analogs were synthesized and their effect on hTERT gene expression in MCF7A and U87 cells determined (FIG. 7). […] Therefore, GTC365 directly repressed the transcription of hTERT and then led to a downstream decrease of BCL2 expression."}, "MYC mRNA": {"tested_on": "MYC mRNA", "assay": "qPCR of MYC mRNA in MCF7 cells", "format": "cell-based, human", "settings": "72 h", "procedure": "as §1, §2"}},
  "data": [
    {"smiles": "Cc1cc(NC(=O)NC(=O)c2ccccc2NC(=O)C(C)N)ccc1Oc1ncc(Br)cn1", "note": "(centres unmarked) [GTC260]", "values": [
      {"measurement": "effect on BCL2 mRNA level", "setting": "BCL2 mRNA", "result": "direct repression of hTERT transcription and the downstream molecule BCL2"},
      {"measurement": "effect on MYC mRNA level", "setting": "MYC mRNA", "result": "no effect"}
    ]}
  ]
}
